The values below come from patent publication US11173175B2, “Uridine diphosphate compounds as mobilizers of hematopoietic progenitor cells” (University of Pittsburgh—Of the Commonwealth System of …, priority 2012, dated 2021).

Entries after “also recorded” stand apart in the source; their conditions may differ.

Data set [1] has as its target T1, P2Y14 receptor (Homo sapiens, UniProt Q15391).
T1 sequence (Q15391 1-338): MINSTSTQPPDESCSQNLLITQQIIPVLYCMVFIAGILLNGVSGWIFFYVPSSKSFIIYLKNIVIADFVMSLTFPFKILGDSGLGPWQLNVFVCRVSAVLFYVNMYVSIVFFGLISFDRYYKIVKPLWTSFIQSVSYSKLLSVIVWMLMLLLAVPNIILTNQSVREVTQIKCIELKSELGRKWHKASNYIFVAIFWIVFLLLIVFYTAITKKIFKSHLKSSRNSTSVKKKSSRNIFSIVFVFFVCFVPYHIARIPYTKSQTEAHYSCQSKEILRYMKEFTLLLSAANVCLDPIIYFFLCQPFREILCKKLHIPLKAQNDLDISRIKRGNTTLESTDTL
As to conditions: cited from earlier work.

In data set [2] the test system is osteoclasts. In words: TRAP staining of femur sections. It is filed as in vivo, mice. The conditions noted are these: NAC treatment.
The test system of data set [3] is bone marrow homing of peripheral blood cells.
The subject of data set [4] is LSK and SLAM LSK cells. In words: HSPC mobilization: LSK and SLAM LSK cells quantified by flow cytometry. It is filed as in vivo, mice. As for the experimental part: (§1) We used 4-6 weeks old C57BL6 and BALB/C in all the experiments. Mice received subcutaneous injections of UDP-glucose (200 mg/kg, Sigma) dissolved in sterile endotoxin-free PBS. G-CSF (Neupogen, Amgen) was administered daily at a dose of 300 μg/kg subcutaneously for 4 consecutive days as previously described (Broxmeyer et al., 2005). […] Antioxidant, N-acetyl-L-cysteine (Sigma-Aldrich), was administered subcutaneously at 100 mg/kg/day. Bone marrow cells were obtained from both femur and tibia and used for flow cytometry and Western blot analysis. All animal studies were conducted after review by the University of Pittsburgh's Institutional Animal Care and Use Committee and in accordance with the University of Pittsburgh's Policy on the Care, Welfare and Treatment of Laboratory Animals.
Peripheral blood Lin-/Sca-1+/c-Kit+(LSK) and CD150+CD48-(SLAM) LSK cells were phenotyped using the following antibodies: lineage markers PE-Cy7-conjugated anti-CD3, anti-CD4, anti-CD8, anti-CD45R, anti-CD11b, anti-Gr-1, and anti-TER-119 (eBioscience); PE-conjugated anti-Sca-1 (eBioscience); APC-conjugated anti-c-Kit (eBioscience); perCP/Cy5.5-conjugated anti-CD150 (BioLegend); pacific Blue™-conjugated anti-CD48 (BioLegend). […] Mitochondrial superoxide level was measured using MitoSox™ (Invitrogen) within LSK cells, according to manufacturer's instructions.
as §1, with “Mice” for “We used 4-6 weeks old C57BL6 and BALB/C in all the experiments. Mice”, “(10).” for “(Broxmeyer et al., 2005).”
Background: A flow cytometer gives signals particle by particle.

For data set [5], the system named is CXCR4. Description: CXCR4 expression on LSK and SLAM LSK cells. The data set is classed as in vivo, mice. As for the experimental part: FIG. 14A-14F. […] HSPC mobilization was assessed by measuring the numbers of LSK (upper left panel) and SLAM LSK (upper right panel) cells in peripheral blood. […] Representative images of TRAP staining from each group are shown (bottom panels). […] Shown are obtained from 6-8 weeks old animals. (C) Mice (B6) were injected as described in the legend to FIG. 11A. Bone marrow cells were collected from each treatment group and stained with indicated antibodies followed by flow cytometry analysis. The data are shown as mean values of three independent experiments with standard deviation. ** p<0.01. (D) Bone marrow mononuclear cells were isolated from B6 mice treated as above. To determine the protease activity, bone marrow supernatants harvested from indicated treatment groups were analyzed by zymogram analysis as described in the Methods section. The intensity of the zymogram bands (left panels) was analyzed utilizing densitometry and expressed as arbitrary units (right panels). Densitometric analyses are represented as the ratios to vehicle-treated group (CTL) set to 1. […] (E) Mice were treated as described in the legend to FIG. 13F. Expression levels of CXCR4 were determined in bone marrow (upper panel) and peripheral blood (lower panel) cells after gating on LSK or SLAM LSK subsets. Data are expressed as mean±SD from at least two independent experiments with four mice per group. […]

In data set [6] the test system is RANKL. Description: RANKL expression by Western blot and immunohistochemistry. It is filed as in vivo, mice. As to conditions: NAC 100 mg/kg/day in comparison with UDP-Glc-treated animals. In general terms: Immunoblotting shows a protein as a band on a membrane.
Data set [7] deals with white blood cell (WBC) and lineage-marker expressing cells (CD3, CD11b, and Gr-1). As to conditions: G-CSFR deficient mice.
The subject of data set [8] is LSK cells. Description: Chemotaxis assay. The data set is classed as cell-based, mouse. The conditions noted are these: CXCL12 120 ng/ml; UDP-Glc, UTP, UDP 10 μM; 6 hours.
Data set [9] concerns the target T1, P2Y14 receptor. The conditions noted are these: Carter et al. 2009; cited from earlier work.
Data set [10] has as its system cathepsin G (CG). Description: Zymographic analysis of bone marrow supernatants. It is filed as in vivo, mice. The method, then:
(§2) FIG. 14A-14F. […] HSPC mobilization was assessed by measuring the numbers of LSK (upper left panel) and SLAM LSK (upper right panel) cells in peripheral blood. […] Representative images of TRAP staining from each group are shown (bottom panels). […] Shown are obtained from 6-8 weeks old animals. (C) Mice (B6) were injected as described in the legend to FIG. 11A. Bone marrow cells were collected from each treatment group and stained with indicated antibodies followed by flow cytometry analysis. The data are shown as mean values of three independent experiments with standard deviation. ** p<0.01. (D) Bone marrow mononuclear cells were isolated from B6 mice treated as above. To determine the protease activity, bone marrow supernatants harvested from indicated treatment groups were analyzed by zymogram analysis as described in the Methods section. The intensity of the zymogram bands (left panels) was analyzed utilizing densitometry and expressed as arbitrary units (right panels). Densitometric analyses are represented as the ratios to vehicle-treated group (CTL) set to 1. […] (E) Mice were treated as described in the legend to FIG. 13F. Expression levels of CXCR4 were determined in bone marrow (upper panel) and peripheral blood (lower panel) cells after gating on LSK or SLAM LSK subsets. Data are expressed as mean±SD from at least two independent experiments with four mice per group. […] Recipient mice were conditioned (11 Gy) 24 hours before injection of cells.

In data set [11] the test system is MMP-9. In words: Zymographic analysis of bone marrow supernatants. It is filed as in vivo, mice. The method, then:
as §2

In data set [12] the test system is neutrophil elastase (NE). Description: Zymographic analysis of bone marrow supernatants. It is filed as in vivo, mice. As for the experimental part:
as §2

The subject of data set [13] is long-term repopulating HSPCs. In words: Competitive repopulation and serial transplantation assays. It is filed as in vivo, mice. As for the experimental part: (§3) The ratio of CD45.1/CD45.2 cells in recipient's peripheral blood was determined at various times after transplantation.
as §3

[14] abbreviates: percentage of gated cells within the total number, UDP-Glc 200 mg/kg 6 days, G-CSF 300 μg/kg 4 days.

`O=c1ccn([C@@H]2O[C@H](COP(=O)([O-])OP(=O)([O-])O[C@H]3O[C@H](CO)[C@@H](O)[C@H](O)[C@H]3O)[C@@H](O)[C@H]2O)c(=S)[nH]1.[Na+].[Na+]` [MRS 2690]: the “potency relative to UDP-Glc” value in data set [1] was “approximately 7 fold”.
Take `CC(=O)N[C@@H](CS)C(=O)O` [NAC, N-acetyl-L-cysteine]: in data set [2], the “UDP-Glc-induced osteoclastogenesis with NAC” value is given as “significantly suppressed with NAC treatment”. Also, the “effect of NAC pretreatment on homing of UDP-Glc-mobilized cells” value in data set [3] was “inhibited by NAC pretreatment”. In data set [4] (NAC 100 mg/kg/day s.c.), the “effect of NAC on UDP-Glc-induced LSK / SLAM LSK cell mobilization” value was “significantly abrogate the LSK and SLAM LSK cell mobilization induced by UDP-Glc; also recorded: significantly suppressed by NAC treatment”. Further, in data set [5], the “effect of NAC on UDP-Glc-induced CXCR4 expression” value is recorded as “able to abrogate the increase of CXCR4 expression induced by UDP-Glc, albeit not completely”. Moreover, in data set [6], the “RANKL expression with NAC” value is given as “notably lowered”.
Consider `O=c1ccn([C@@H]2O[C@H](COP(=O)(O)OP(=O)(O)O)[C@@H](O)[C@H]2O)c(=O)[nH]1` [UDP, uridine diphosphate], for which the “peripheral CD11b+, GR1+ and CD3+ cells in Csf3r−/− mice” value in data set [7] is given as “minimally affected”. In [4] (UDP 200 mg/kg s.c.), the “LSK cells in the peripheral circulation, UDP alone” value is given as “did not elicit any appreciable change in the number of LSK cells”. Further, the “effect of UDP on UDP-Glc-induced LSK cell mobilization” value in data set [4] (UDP 200 mg/kg with UDP-Glc 200 mg/kg) was “antagonized UDP-Glc-induced LSK cell mobilization”. In addition, in data set [8], the “chemotactic migration of mouse LSK cells” value is given as “could chemoattract LSK cells in vitro in the presence or absence of CXCL12”. Further, in data set [9], the “agonist activity at the human P2Y14 receptor” value is reported as “potent agonist of the human P2Y14 receptor”.
For `O=c1ccn([C@@H]2O[C@H](COP(=O)(O)OP(=O)(O)OP(=O)(O)O)[C@@H](O)[C@H]2O)c(=O)[nH]1` [UTP, uridine-5′-triphosphate, reference compound], the “chemotactic migration of mouse LSK cells” value in data set [8] is recorded as “only a slight increase for mouse LSK cell migration with no statistical significance”.

B1: G-CSF: G-CSF (Neupogen, Amgen), most commonly used cytokine for mobilization of HSPCs (protein, chains of the INN, looked up)
chain: MTPLGPASSLPQSFLLKCLEQVRKIQGDGAALQEKLCATYKLCHPEELVLLGHSLGIPWAPLSSCPSQALQLAGCLSQLHSGLFLYQGLLQALEGISPELGPTLDTLQLDVADFATTIWQQMEELGMAPALQPTQGAMPAFASAFQRRAGGVLVASHLQSFLEVSYRVLRHLAQP
As for B1, in data set [4] (setting [14]), the “LSK cells in mobilized peripheral blood” value was determined as 0.058% and the “SLAM LSK cells in mobilized peripheral blood” value came out at 0.0014%. For the same molecule, in [10], the “level of CG” value is listed as “Elevated levels”. The “level of MMP-9” value in data set [11] is “Elevated levels”. Further, in data set [12], the “level of NE” value is recorded as “Elevated levels”. The “competitive repopulation, UDP-Glc- vs G-CSF-mobilized cells, early” value in data set [13] (one month following transplantation) is recorded as “considerable competitive advantage over UDP-Glc-mobilized cells”. For the same molecule, the “competition in secondary recipients, bone marrow cells” value in data set [13] (serial transplantation, UDP-Glc (CD45.2) vs G-CSF (CD45.1)) is “completely out-competed by the cells derived from UDP-Glc mobilization”.
